Data on six compounds can be found in paper PMC8745330, “Aromatic Sulfonamides including a Sulfonic Acid Tail: New Membrane Impermeant Carbonic Anhydrase Inhibitors for Targeting Selectively the Cancer-Associated Isoforms” (International Journal of Molecular Sciences, 2021).

A short description of data set [1]: Caco-2 cell viability by MTS. Format: cell-based. The following applies: human; Caco-2 cells, 50 μM, 2 h of exposure, MTS; data not shown. The method, then: (§1) The colorectal adenocarcinoma cell line Caco-2 was purchased from American Tissue Type Culture Collection (Manassas, VA, USA) and cultured in Dulbecco’s modified Eagle’s medium (DMEM) (Thermo Fisher Scientific, Rodano, Milan, Italy) with 20% fetal bovine serum (FBS) (Thermo Fisher Scientific, Rodano, Milan, Italy) and 100 U/mL penicillin–streptomycin (Thermo Fisher Scientific, Rodano, Milan, Italy) in 5% CO2 at 37 °C. Cell viability was determined by MTS after 2 h of exposure to the aliphatic sulfonate CAIs at 50 µM concentration, as previously described.

In another data set the target is T1, hCA IX (Homo sapiens, UniProt Q16790).
T1 construct: made in house
Nature of the data set: stopped flow CO2 hydrase assay, CA IX. Format: biochemical. As to conditions: for Selectivity index (SI) CA I/CA IX / Selectivity index (SI) CA II/CA IX: ratio between KI values; for Ki: stopped flow CO2 hydrase assay, mean from 3 different assays, errors ±5–10%. The method, then:
(§2) An Applied Photophysics stopped-flow instrument was used for assaying the CA catalyzed CO2 hydration activity. Phenol red (at a concentration of 0.2 mM) was used as an indicator, working at the absorbance maximum of 557 nm, with 20 mM HEPES (pH 7.5) as buffer, and 20 mM Na2SO4 (for maintaining constant the ionic strength), following the initial rates of the CA-catalyzed CO2 hydration reaction for a period of 10–100 s. The CO2 concentrations ranged from 1.7 to 17 mM for the determination of the kinetic parameters and inhibition constants. For each inhibitor, at least six traces of the initial 5–10% of the reaction were used for determining the initial velocity. The uncatalyzed rates were determined in the same manner and subtracted from the total observed rates. Stock solutions of inhibitor (0.1 mM) were prepared in distilled–deionized water, and dilutions up to 0.01 nM were done thereafter with the assay buffer. Inhibitor and enzyme solutions were preincubated together for 45 min at room temperature prior to assay in order to allow for the formation of the E–I complex. The inhibition constants were obtained by non-linear least-squares methods using PRISM 3 and the Cheng–Prusoff equation, as reported earlier, representing the mean from at least three different determinations. […] All CA isoforms were recombinant ones obtained in-house, as reported earlier.

The target in the next data set is T2, hCA I (Homo sapiens, UniProt P00915).
T2 construct: made in house
T2 sequence (P00915 whole entry): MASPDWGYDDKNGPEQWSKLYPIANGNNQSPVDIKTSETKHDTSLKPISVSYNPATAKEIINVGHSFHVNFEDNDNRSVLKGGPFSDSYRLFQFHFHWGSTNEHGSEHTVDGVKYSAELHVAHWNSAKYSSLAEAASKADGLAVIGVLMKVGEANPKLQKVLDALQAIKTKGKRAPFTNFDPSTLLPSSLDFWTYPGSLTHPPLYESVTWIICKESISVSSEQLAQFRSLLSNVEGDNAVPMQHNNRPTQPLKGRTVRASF
Briefly: stopped flow CO2 hydrase assay, CA I. Format: biochemical. The following applies: mean from 3 different assays, errors ±5–10%. Here is the method: as §2

For the next data set, the target named is T3, hCA XII (Homo sapiens, UniProt O43570).
T3 construct: made in house
T3 sequence (O43570 25-354): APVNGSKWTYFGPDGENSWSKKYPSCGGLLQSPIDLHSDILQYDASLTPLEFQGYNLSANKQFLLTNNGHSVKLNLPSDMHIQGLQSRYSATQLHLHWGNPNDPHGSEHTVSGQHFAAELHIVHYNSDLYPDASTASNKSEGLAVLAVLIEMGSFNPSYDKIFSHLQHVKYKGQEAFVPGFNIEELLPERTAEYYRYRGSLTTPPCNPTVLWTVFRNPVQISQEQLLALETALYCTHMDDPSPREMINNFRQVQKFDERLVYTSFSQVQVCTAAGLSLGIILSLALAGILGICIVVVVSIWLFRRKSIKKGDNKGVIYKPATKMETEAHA
Nature of the data set: stopped flow CO2 hydrase assay, CA XII. Format: biochemical. As to conditions: for Selectivity index (SI) CA I/CA XII / Selectivity index (SI) CA II/CA XII: ratio between KI values; for Ki: stopped flow CO2 hydrase assay, mean from 3 different assays, errors ±5–10%. Here is the method: as §2

A further data set has as its target T4, hCA IV (Homo sapiens, UniProt P22748).
T4 construct: made in house
Briefly: stopped flow CO2 hydrase assay, CA IV. The data set is classed as biochemical. As to conditions: mean from 3 different assays, errors ±5–10%. Here is the method:
as §2

A further data set concerns the target T5, hCA II (Homo sapiens, UniProt P00918).
T5 construct: made in house
Nature of the data set: stopped flow CO2 hydrase assay, CA II. Format: biochemical. As to conditions: mean from 3 different assays, errors ±5–10%. The method, then:
as §2

A further data set has as its system Caco-2 cells. Briefly: Caco-2 cell viability by MTS. The following applies: 50 µM. Format: cell-based. The method, then: as §1

Values joined by “and” are separate entries in the source; they are usually repeats but may differ in a detail not shown here. Identical values can stand only once.

T4 sequence (P22748 19-312): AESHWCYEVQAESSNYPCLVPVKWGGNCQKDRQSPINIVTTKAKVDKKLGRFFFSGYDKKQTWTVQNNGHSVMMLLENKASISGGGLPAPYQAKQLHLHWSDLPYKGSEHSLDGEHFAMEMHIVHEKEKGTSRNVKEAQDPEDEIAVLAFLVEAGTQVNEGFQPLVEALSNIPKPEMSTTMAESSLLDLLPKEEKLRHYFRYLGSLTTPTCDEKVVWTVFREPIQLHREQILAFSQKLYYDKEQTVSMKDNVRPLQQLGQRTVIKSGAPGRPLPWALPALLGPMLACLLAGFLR

In the case of `NS(=O)(=O)c1ccc(C(=O)NCc2cn(CCCS(=O)(=O)[O-])nn2)cc1.[Na+]` [Compound 33, Sodium 3-(4-((4-sulfamoylbenzamido)methyl)-1H-1,2,3-triazol-1-yl)propane-1-sulfonate], the melting point (commonly the temperature, or range, at which the solid turns liquid) was above 300 °C. The viability (commonly a per cent measure of how many cells are alive, often set against a control) at 2 h, 50 µM in data set [1] is above 95%. In addition, on hCA IX, the “Selectivity index (SI) CA I/CA IX” value is 143; the “Selectivity index (SI) CA II/CA IX” value stood at 1.3; the Ki – broadly, a dissociation constant, usually derived from enzyme kinetics or from competition with a known ligand – amounted to 3.2 nM. The same compound showed a Ki at hCA I of 458 nM. Also, at hCA XII, the “Selectivity index (SI) CA I/CA XII” value was 48 and 48.2; the “Selectivity index (SI) CA II/CA XII” value is listed as 0.45; the Ki stood at 9.5 nM. For the same compound, on hCA IV, affinity was put at a Ki of 56.3 nM. This compound also returned a Ki at hCA II of 4.3 nM.

Turning to `NS(=O)(=O)c1ccc(NC(=O)NCc2cn(CCCS(=O)(=O)[O-])nn2)cc1.[Na+]` [Compound 34, Sodium 3-(4-((3-(4-sulfamoylphenyl)ureido)methyl)-1H-1,2,3-triazol-1-yl)propane-1-sulfonate], the melting point was above 300 °C. The viability at 2 h, 50 µM in data set [1] was above 95%. Also, at hCA IX, the “Selectivity index (SI) CA I/CA IX” value is given as 9.1, the “Selectivity index (SI) CA II/CA IX” value was 0.11 and the Ki was 68.2 nM. Besides, affinity at hCA I was put at a Ki of 622 nM. At hCA XII, the “Selectivity index (SI) CA I/CA XII” value is listed as 9.2, the “Selectivity index (SI) CA II/CA XII” value was 0.11 and the Ki was 67.6 nM. This compound also registered a Ki at hCA IV of 63.5 nM. Moreover, the Ki at hCA II came to 7.4 nM.

As to `NS(=O)(=O)c1ccc(NC(=O)Nc2ccc(OCc3cn(CCCS(=O)(=O)[O-])nn3)cc2)cc1.[Na+]` [Compound 38, Sodium 3-(4-((4-(3-(4-sulfamoylphenyl)ureido)phenoxy)methyl)-1H-1,2,3-triazol-1-yl)propane-1-sulfonate], the melting point is above 300 °C. For the same compound, in data set [1], the viability at 2 h, 50 µM was above 95%. On hCA IX, the “Selectivity index (SI) CA I/CA IX” value was determined as 0.95; the “Selectivity index (SI) CA II/CA IX” value is listed as 0.10; the affinity, expressed as Ki, was 54.4 nM. The affinity at hCA I corresponds to a Ki of 51.6 nM. Further, at hCA XII, the “Selectivity index (SI) CA I/CA XII” value was 1.1, the “Selectivity index (SI) CA II/CA XII” value worked out at 0.11 and the Ki is 49 nM. Moreover, affinity at hCA IV was put at a Ki of 36.7 nM. At hCA II, this compound displayed a Ki of 5.4 nM.

On to `CC(=O)Nc1cc(S(N)(=O)=O)ccc1OCc1cn(CCCS(=O)(=O)[O-])nn1.[Na+]` [Compound 39, Sodium 3-(4-((2-acetamido-4-sulfamoylphenoxy)methyl)-1H-1,2,3-triazol-1-yl)propane-1-sulfonate], for which the melting point is above 300 °C. Also, in data set [1], the viability at 2 h, 50 µM is above 95%. Besides, at hCA IX, the “Selectivity index (SI) CA I/CA IX” value was above 41, the “Selectivity index (SI) CA II/CA IX” value was 0.26 and the Ki was 242 nM. The Ki on hCA I is above 10000 nM. On hCA XII, the “Selectivity index (SI) CA I/CA XII” value is given as above 534, the “Selectivity index (SI) CA II/CA XII” value is 3.4 and affinity was put at a Ki of 18.7 nM. This compound also came in with a Ki at hCA IV of 244 nM. At hCA II, this compound had a Ki of 63.4 nM.

As for “Sodium 3-(4-(4-sulfamoylphenyl)-1H-1,2,3-triazol-1-yl)butane-1-sulfonate [Compound 41]”, the cell viability (commonly the share of living cells, or the viability signal relative to a control) in the data set on Caco-2 cells was above 95%. At hCA IX, the “Selectivity index (SI) CA I/CA IX” value worked out at 17; the “Selectivity index (SI) CA II/CA IX” value was determined as 2.2; the affinity, expressed as Ki, was 8.6 nM. On hCA I, this compound displayed a Ki of 150 nM. Besides, at hCA XII, the “Selectivity index (SI) CA I/CA XII” value worked out at 3.4; the “Selectivity index (SI) CA II/CA XII” value is 0.44; the affinity, expressed as Ki, was 43.1 nM. The Ki on hCA IV was 408 nM. In addition, the inhibitory constant (Ki) at hCA II came out at 18.8 nM.

With “Sodium 3-(4-(((4-sulfamoylphenyl)amino)methyl)-1H-1,2,3-triazol-1-yl)butane-1-sulfonate [Compound 43]”, the cell viability with Caco-2 cells is given as above 95%. In addition, the “Selectivity index (SI) CA I/CA IX” value on hCA IX is listed as 36. Besides, the “Selectivity index (SI) CA II/CA IX” value on hCA IX is 4.5. Further, the Ki amounted to 79.9 nM on hCA IX; 2910 nM on hCA I; 3.4 nM on hCA XII; 883 nM on hCA IV; 364 nM on hCA II. Also, the “Selectivity index (SI) CA I/CA XII” value on hCA XII stood at 855. In addition, the “Selectivity index (SI) CA II/CA XII” value at hCA XII worked out at 107.
